These are literature values, as cited in PubChem BioAssay AID1259410 (Chemical Carcinogenesis Research Information System (CCRIS), 2018).

For this data set, the system named is rodent tumor promotion studies, tumor incidence. Nature of the data set: CCRIS tumor promotion studies.

The structures appear in SMILES notation.

Turning to `COC(=O)[C@@H](N)Cc1ccc(O)cc1`, the outcome is, setting by setting: (Carcinogen: N-METHYL-N'-NITRO-N-NITROSOGUANIDINE, 70-25-7, Doses [Carcinogen]: 25 UG/ML IN DRINKING WATER FOR 25 WK, Doses [Promoter]: 0, 512 MG/KG BW IN 0.9% SALINE 1/2 D FOR 26 WK BEGINNING 1 WK POST CARCINOGEN TREATMENT (STUDY DURATION: 52 WK), Route [Carcinogen]: ORAL, Route [Promoter]: SUBCUTANEOUS, Species: RAT, Strain/Sex: WISTAR/MALE) “stomach: adenocarcinoma”; (Carcinogen: N-METHYL-N'-NITRO-N-NITROSOGUANIDINE, 70-25-7, Doses [Carcinogen]: 50 UG/ML IN DRINKING WATER FOR 20 WK, Doses [Promoter]: 0, 2 ML/KG IN A VOLUME OF 2 ML/KG 0.9% NACL AT DOSE LEVEL OF 512 MG/KG/BW 1/2 D FOR 32 WK (STUDY DURATION: 32 WK), Route [Carcinogen]: ORAL, Route [Promoter]: SUBCUTANEOUS, Species: RAT, Strain/Sex: WISTAR/MALE) “stomach: adenocarcinoma”.

Consider `C=CC(C)(C)c1ccc2c3c(c[nH]c13)C[C@@H](CO)NC(=O)[C@H](C(C)C)N2C`, for which, for the setting “Carcinogen: DIMETHYLBENZ[A]ANTHRACENE, 57-97-6, Doses [Carcinogen]: 100 UG IN 100 µL ACETONE APPLIED TO THE BACK ONCE, Doses [Promoter]: 5 UG IN 100 ML ACETONE APPLIED TO THE BACK 2/WK FOR 15 WK BEGINNING 1 WK POST CARCINOGEN DOSE THEN 10 UG 2/WK FOR 15 WK, Route [Carcinogen]: DERMAL, Route [Promoter]: DERMAL, Species: MOUSE, Strain/Sex: CD-1/FEMALE”, the outcome is reported as “skin: papilloma”. In the case of `CC(C)(C)c1ccc(O)c(O)c1`, the outcome (Carcinogen: N-METHYL-N'-NITRO-N-NITROSOGUANIDINE, 70-25-7, Doses [Carcinogen]: 150 MG/KG IN DMSO ONCE, Doses [Promoter]: 0, 1.5% IN DIET FOR 51 WK BEGINNING 1 WK AFTER CARCINOGEN DOSE (STUDY DURATION: 52 WK), Route [Carcinogen]: GAVAGE, Route [Promoter]: ORAL, Species: RAT, Strain/Sex: F344/MALE) is reported as “forestomach: squamous cell carcinoma”.

As for `O=C(O)CN(CC(=O)O)CC(=O)O`, the outcome reads like this: (Carcinogen: N-BIS(2-HYDROXYPROPYL)NITROSAMINE, 53609-64-6, Doses [Carcinogen]: 0.2% IN DRINKING WATER FOR 2 WK, Doses [Promoter]: 0, 1% IN DIET FOR 30 WK BEGINNING POST CARCINOGEN DOSE (STUDY DURATION: 32 WK), Route [Carcinogen]: ORAL, Route [Promoter]: ORAL, Species: RAT, Strain/Sex: WISTAR/MALE) “bladder: papilloma”; (Carcinogen: N-BUTYL-N-(4-HYDROXYBUTYL)NITROSAMINE, 3817-11-6, Doses [Carcinogen]: 500 PPM IN DRINKING WATER FOR 4 WK, Doses [Promoter]: 0, 10000 PPM IN DIET BEGINNING POST CARCINOGEN TREATMENT AND CONTINUING FOR 28 WK (STUDY DURATION: 32 WK), Route [Carcinogen]: ORAL, Route [Promoter]: ORAL, Species: RAT, Strain/Sex: WISTAR/MALE) “urinary bladder: papilloma, transitional cell carcinoma”; (Carcinogen: N-BUTYL-N-(4-HYDROXYBUTYL)NITROSAMINE, 3817-11-6, Doses [Carcinogen]: 500 PPM IN DRINKING WATER FOR 4 WK, Doses [Promoter]: 0, 10000 PPM IN DIET FOR 28 WK STARTING POST CARCINOGEN (STUDY DURATION: 32 WK), Route [Carcinogen]: ORAL, Route [Promoter]: ORAL, Species: RAT, Strain/Sex: WISTAR/MALE) “bladder: papilloma, transitional cell carcinoma, squamous cell carcinoma”; (Carcinogen: N-ETHYL-N-(2-HYDROXYETHYL)NITROSAMINE, Doses [Carcinogen]: 1000 PPM IN DIET FOR 2 WK, Doses [Promoter]: 500, 10000 PPM IN DIET FOR 30 WK, Route [Carcinogen]: ORAL, Route [Promoter]: ORAL, Species: RAT, Strain/Sex: WISTAR/MALE) “kidney: tubular cell tumor”; (Carcinogen: N-ETHYL-N-HYDROXYETHYLNITROSAMINE, 13147-25-6, Doses [Carcinogen]: 0.1% IN DIET FOR 2 WK, Doses [Promoter]: 0, 1% IN DIET BEGINNING POST CARCINOGEN TREATMENT AND CONTINUING FOR 30 WK (STUDY DURATION: 32 WK), Route [Carcinogen]: ORAL, Route [Promoter]: ORAL, Species: RAT, Strain/Sex: F344/MALE) “kidney: adenoma or carcinoma”; (Carcinogen: N-ETHYL-N-HYDROXYETHYLNITROSAMINE, 13147-25-6, Doses [Carcinogen]: 1000 PPM IN DIET FOR 2 WK, Doses [Promoter]: 0, 500, 10000 PPM IN DIET FOR 30 WK STARTING POST CARCINOGEN (STUDY DURATION: 32 WK), Doses [Promoter]: 0, 500, 10000 PPM IN DIET FOR 30 WK STARTING POST CARCINOGEN (STUDY DURATION: 32 WK), Route [Carcinogen]: ORAL, Route [Promoter]: ORAL, Species: RAT, Strain/Sex: WISTAR/MALE) “kidney: tubular cell tumor”. For the same molecule, for the setting “Carcinogen: Potassium bromate (7758-01-2), Doses [Carcinogen]: 60, 125, 250 and 500 ppm in drinking water for 13 wk (study duration 52 wk), Doses [Promoter]: 1% in diet for 37 wks starting 2 wk after end of carcinogen administration (study duration 52 wk), Route [Carcinogen]: Oral, Route [Promoter]: Oral, Species: Rat, Strain/Sex: F344 (15/Group)”, the outcome was “kidney: significant increase in multiplicity of atypical tubules and of incidenc”. As to `ClC1=C(Cl)C2(Cl)C3C(Cl)C(Cl)CC3C1(Cl)C2(Cl)Cl` (centres undefined), the outcome (Carcinogen: DIETHYLNITROSAMINE, 55-18-5, Doses [Carcinogen]: 20 PPM IN DRINKING WATER FOR 14 WK, Doses [Promoter]: 0, 25, 50 PPM TECHNICAL GRADE IN DIET BEGINNING 4 WK POST LAST CARCINOGEN DOSE AND CONTINUING FOR 25 WK (STUDY DURATION:, Doses [Promoter]: 0, 25, 50 PPM TECHNICAL GRADE IN DIET BEGINNING 4 WK POST LAST CARCINOGEN DOSE AND CONTINUING FOR 25 WK (STUDY DURATION:, Route [Carcinogen]: ORAL, Route [Promoter]: ORAL, Species: MOUSE, Strain/Sex: B6C3F1/MALE) is given as “liver: adenoma or carcinoma”. With `CC(C(=O)O)c1ccc(-c2ccccc2)c(F)c1` (centres undefined), under “Carcinogen: N-METHYL-N'-NITRO-N-NITROSOGUANIDINE, 70-25-7, Doses [Carcinogen]: 10 MG ADMINISTERED AS 3 D TREATMENT CYCLES FOLLOWED BY REST PERIODS FOR A TOTAL OF 6 CYCLES (TOTAL DOSE 180 MG DURING 40, Doses [Promoter]: 0.5 MG ADMINISTERED AS 3 D TREATMENT CYCLES FOLLOWED BY REST PERIODS ADMINISTERED CONCURRENTLY WITH CARCINOGEN DURING 40, Route [Carcinogen]: INTRAGASTRIC, Route [Promoter]: GAVAGE, Species: RAT, Strain/Sex: WISTAR/FEMALE”, the outcome was “stomach: adenocarcinoma; small intestine: adenocarcinoma”. As to `C=C1C(O)C2OC3(CCC(/C=C/C(C)C4CC(C)=CC5(OC(CC(C)(O)C(=O)O)CCC5O)O4)O3)CCC2OC1C(O)CC(C)C1OC2(CCC1C)OCCCC2C` (centres undefined), the outcome (Carcinogen: 7,12-DIMETHYLBENZ[A]ANTHRACENE, 57-97-6, Doses [Carcinogen]: 100 UG IN 0.1 ML OF ACETONE ONCE, Doses [Promoter]: 0, 5 UG IN 0.1 ML OF ACETONE 2/WK FOR 30 WK BEGINNING 1 WK POST CARCINOGEN DOSE (STUDY DURATION: 31 WK), Route [Carcinogen]: DERMAL, Route [Promoter]: DERMAL, Species: MOUSE, Strain/Sex: CD-1/FEMALE) is “skin: tumor”. For the molecule `O=P(O)(O)OC1C(OP(=O)(O)O)C(OP(=O)(O)O)C(OP(=O)(O)O)C(OP(=O)(O)O)C1OP(=O)(O)O` (centres undefined), for the setting “Carcinogen: N-BUTYL-N-(4-HYDROXYBUTYL)NITROSAMINE, 3817-11-6, Doses [Carcinogen]: 0.05% IN DRINKING WATER FOR 4 WK, Doses [Promoter]: 0, 2% IN DIET BEGINNING POST CARCINOGEN TREATMENT AND CONTINUING FOR 32 WK (STUDY DURATION: 36 WK), Route [Carcinogen]: ORAL, Route [Promoter]: ORAL, Species: RAT, Strain/Sex: F344/MALE”, the outcome is reported as “urinary bladder: papilloma, carcinoma”. For `Cn1c(N)nc2c3cccnc3ccc21`, the outcome (Carcinogen: Diethyl nitrosamine (DEN), 55-18-5 and dimethylhydrazine (DMH), 30260-66-3, Carcinogen: Diethyl nitrosamine (DEN), 55-18-5 and dimethylhydrazine (DMH), 30260-66-3, Doses [Carcinogen]: DEN, 200 mg/kg once at -3 days, DMH, 40 mg/kg 4 injections between day 0 and wk 2, Doses [Promoter]: 0, 300 ppm in diet from week 2 to 29, study duration 29 wk, Doses [Promoter]: 0, 300 ppm in diet from week 2 to 29, study duration 29 wk, Route [Carcinogen]: Intraperitoneal (DEN) and subcutaneous (DMH), Route [Promoter]: Oral, Species: Rat, Strain/Sex: F344/Du Crj (20/group with 11 survivors)) is “liver: hepatocellular adenoma and carcinoma. colon adenoma and carcinoma. signif”. In the case of `Cc1ccc(O)c(C)c1`, for the setting “Carcinogen: 7,12-DIMETHYLBENZ(A)ANTHRACENE, Doses [Carcinogen]: TOP, Route [Carcinogen]: DERMAL, Route [Promoter]: DERMAL, Species: MOUSE, Strain/Sex: FEMALE”, the outcome is listed as “integumentary system (skin)”.

As for `CC(=O)Nc1ccc2c(c1)C(O)c1ccccc1-2` (centres undefined), the outcome (Carcinogen: DIETHYLNITROSAMINE, 55-18-5, Doses [Carcinogen]: 200 MG/KG BW IN 0.9% SALINE ONCE, Doses [Promoter]: 0, 0.1 MMOL/KG BW IN POLYETHYLENE GLYCOL FOR 5 D BEGINNING 1 WK POST CARCINOGEN DOSE, 70% HEPATECTOMY PERFORMED 3 D AFTE, Route [Carcinogen]: INTRAPERITONEAL, Route [Promoter]: GAVAGE, Species: RAT, Strain/Sex: SPRAGUE-DAWLEY/MALE) is given as “liver: hepatocellular carcinoma”. As for `CCCCCCCCCCCCCC(=O)OCC1=C[C@H]2C3C(C)(C)C3(OC(C)=O)[C@H](OC(=O)CCCCCCCCCCCCC)[C@@H](C)[C@]2(O)[C@@H]2C=C(C)C(=O)[C@]2(O)C1` (some centres undefined), the outcome (Carcinogen: 7,12-DIMETHYLBENZ[A]ANTHRACENE, 57-97-6, Doses [Carcinogen]: 100 NMOL ONCE, Doses [Promoter]: 0, 50, 100, 200 NMOL 2/WK FOR 24 WK BEGINNING 1 WK POST CARCINOGEN DOSE (STUDY DURATION: 25 WK), Doses [Promoter]: 0, 50, 100, 200 NMOL 2/WK FOR 24 WK BEGINNING 1 WK POST CARCINOGEN DOSE (STUDY DURATION: 25 WK), Route [Carcinogen]: DERMAL, Route [Promoter]: DERMAL, Species: MOUSE, Strain/Sex: NMRI/FEMALE) is given as “skin: tumor”.
